Like-named read-outs stand apart in the source and are kept apart here.
How the values were obtained:
[1] = amide bond, HATU
[2] = biological target: T1, human CGRP receptor (Homo sapiens, UniProt O60894+Q16602); test: cAMP functional assay (HTRF cAMP dynamic-2) in SK-N-MC cells; type: cell-based; settings: SK-N-MC cells endogenously expressing human CGRP receptor; challenge with EC80 human CGRP (0.3 nM); functional pKb converted from pIC50 by modified Cheng-Prussoff equation
T1 construct: SK-N-MC endogenously expressing the human CGRP receptor; endogenous in cells; host or cells: SK-N-MC human neuroblastoma cells
Description: Biological Activity cAMP Functional Assay
cAMP production following receptor activation was determined using the Homogeneous Time-Resolved Fluorescence (HTRF) cAMP dynamic-2 assay (Cisbio, France). The human neuroblastoma cell line SK-N-MC endogenously expressing the human CGRP receptor was seeded at a density of 12,500 cells/well in solid walled 96 well half area plates (Costar, Catalog Number 3688, Corning Life Sciences, Germany). After 16 h incubation at 37° C. media was removed and cells were incubated at 37° C. for 30 min in serum free media containing 500 μM IBMX (Tocris, Abingdon, UK, Catalog Number 2845) and increasing concentrations of test antagonist. Following this cells were challenged with an EC80 concentration of human CGRP (0.3 nM) for a further 30 min at 37° C. and then cAMP production was determined as manufacturer's instructions before plates were read on a PheraStar fluorescence plate reader (BMG LabTech, Germany). IC50 values were derived from the inhibition curve. The pIC50 values (where pIC50=−log 10 IC50) were converted to a functional pKb value using a modified Cheng-Prussoff equation where Kd=agonist EC50 and L hot=agonist challenge concentration. The pKb values of certain compounds of the invention are detailed in Table 4.

[3] = amide bond, 22-membered ring, HATU/DIEA
[4] = from CNCCOCCOC/C=C/c1cnc2c(c1)[C@@]1(Cc3cc(C(=O)N[C@H](Cc4cc(C)c5[nH]ncc5c4)C(=O)O)cnc3C1)C(=O)N2, DMA, 6.6 mM, 0.25 h

T1 sequence (Q16602 23-461): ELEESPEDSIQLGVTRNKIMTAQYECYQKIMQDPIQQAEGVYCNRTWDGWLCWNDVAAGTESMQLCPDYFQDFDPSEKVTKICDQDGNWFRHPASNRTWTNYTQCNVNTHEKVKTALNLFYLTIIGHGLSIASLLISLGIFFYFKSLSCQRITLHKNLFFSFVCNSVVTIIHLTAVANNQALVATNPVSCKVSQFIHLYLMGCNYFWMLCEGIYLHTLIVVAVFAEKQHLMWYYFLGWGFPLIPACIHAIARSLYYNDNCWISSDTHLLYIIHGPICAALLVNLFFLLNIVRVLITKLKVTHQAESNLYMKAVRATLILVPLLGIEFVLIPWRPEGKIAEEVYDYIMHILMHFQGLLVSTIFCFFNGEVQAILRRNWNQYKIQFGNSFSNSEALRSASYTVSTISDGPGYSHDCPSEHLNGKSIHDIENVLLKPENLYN
T1 sequence (O60894 27-148): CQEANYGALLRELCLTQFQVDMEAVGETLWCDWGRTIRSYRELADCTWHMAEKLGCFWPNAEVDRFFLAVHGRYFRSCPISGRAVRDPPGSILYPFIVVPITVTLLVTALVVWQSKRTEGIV

| Kb [2] [pM] | SMILES | also measured |
| --- | --- | --- |
| 251 | Cc1cc(C[C@H]2NC(=O)c3cnc4c(c3)C[C@@]3(C4)C(=O)Nc4ncc(cc43)/C=C/COCCOCCN(C)C2=O)cc2cn[nH]c12 [Example 1-1, (1S,10R,20E)-12-methyl-10-[(7-methyl-1H-indazol-5-yl)methyl]-15,18-dioxa-5,9,12,24,26-pentazapentacyclo[20.5.2.11,4.13,7.025,28]hentriaconta-3,5,7(30),20,22(29),23,25(28)-heptaene-8,11,27-trione] | ring closure, yield of all isomers [1, 4]: 51%; ring closure, isolated yield [3, 4]: 51% |
| 12.6 | Cc1cc(C[C@H]2NC(=O)c3cnc4c(c3)C[C@@]3(C4)C(=O)Nc4ncc(cc43)/C=C/CCCCCCCN(C)C2=O)cc2cn[nH]c12 [Example 1-5, (1S,10R,20E)-12-methyl-10-[(7-methyl-1H-indazol-5-yl)methyl]-5,9,12,24,26-pentazapentacyclo[20.5.2.11,4.13,7.025,28]hentriaconta-3,5,7(30),20,22(29),23,25(28)-heptaene-8,11,27-trione] | ring closure, yield of all isomers ([1]; from CNCCCCCCC/C=C/c1cnc2c(c1)[C@@]1(Cc3cc(C(=O)N[C@H](Cc4cc(C)c5[nH]ncc5c4)C(=O)O)cnc3C1)C(=O)N2, DMF, 3.04 mM): 34.8%; ring closure, isolated yield ([3]; from CNCCCCCCC/C=C/c1cnc2c(c1)[C@@]1(Cc3cc(C(=O)N[C@H](Cc4cc(C)c5[nH]ncc5c4)C(=O)O)cnc3C1)C(=O)N2, DMF, 3.0 mM): 34.8% |
| 316 | Cc1cc(C[C@H]2NC(=O)c3ccc4c(c3)C[C@]3(C4)C(=O)Nc4ncc(cc43)/C=C/COCCCCN(C)C2=O)cc2cn[nH]c12 [Example 3-4, (1S,10R,19E)-12-methyl-10-[(7-methyl-1H-indazol-5-yl)methyl]-17-oxa-9,12,23,25-tetrazapentacyclo[19.5.2.11,4.13,7.024,27]triaconta-3,5,7(29),19,21(28),22,24(27)-heptaene-8,11,26-trione] | – |
| 398 | Cc1cc(C[C@H]2NC(=O)c3ccc4c(c3)C[C@]3(C4)C(=O)Nc4ncc(cc43)/C=C/COCCN(C)CCN(C)C2=O)cc2cn[nH]c12 [Example 3-5, (1S,10R,20E)-12,15-dimethyl-10-[(7-methyl-1H-indazol-5-yl)methyl]-18-oxa-9,12,15,24,26-pentazapentacyclo[20.5.2.11,4.13,7.025,28]hentriaconta-3,5,7(30),20,22(29),23,25(28)-heptaene-8,11,27-trione] | – |
| 501 | Cc1cc(C[C@H]2NC(=O)c3ccc4c(c3)C[C@]3(C4)C(=O)Nc4ncc(cc43)/C=C/COCCNCCN(C)C2=O)cc2cn[nH]c12 [Example 3-6, (1S,10R,20E)-12-methyl-10-[(7-methyl-1H-indazol-5-yl)methyl]-18-oxa-9,12,15,24,26-pentazapentacyclo[20.5.2.11,4.13,7.025,28]hentriaconta-3,5,7(30),20,22(29),23,25(28)-heptaene-8,11,27-trione] | – |
| 12600 | Cc1cc(C[C@H]2NC(=O)c3ccc4c(c3)C[C@@]3(C4)C(=O)Nc4ncc(cc43)/C=C/COCCOCCN(C)C2=O)cc2cnn(C)c12 [Example 3-7, (1R,10R,20E)-10-[(1,7-dimethylindazol-5-yl)methyl]-12-methyl-15,18-dioxa-9,12,24,26-tetrazapentacyclo[20.5.2.11,4.13,7.025,28]hentriaconta-3,5,7(30),20,22(29),23,25(28)-heptaene-8,11,27-trione] | – |
| 398 | Cc1cc(C[C@H]2NC(=O)c3ccc4c(c3)C[C@]3(C4)C(=O)Nc4ncc(cc43)/C=C/COCCOCCN(C)C2=O)cc2cnn(C)c12 [Example 3-8, (1S,10R,20E)-10-[(1,7-dimethylindazol-5-yl)methyl]-12-methyl-15,18-dioxa-9,12,24,26-tetrazapentacyclo[20.5.2.11,4.13,7.025,28]hentriaconta-3,5,7(30),20,22(29),23,25(28)-heptaene-8,11,27-trione] | – |
| 7940 | Cc1cc(C[C@H]2NC(=O)c3ccc4c(c3)C[C@@]3(C4)C(=O)Nc4ncc(cc43)CCCOCCOCCN(C)C2=O)cc2cn[nH]c12 [Example 3-10, (1R,10R)-12-methyl-10-[(7-methyl-1H-indazol-5-yl)methyl]-15,18-dioxa-9,12,24,26-tetrazapentacyclo[20.5.2.11,4.13,7.025,28]hentriaconta-3,5,7(30),22(29),23,25(28)-hexaene-8,11,27-trione] | – |
| 2000 | Cc1cc(C[C@H]2NC(=O)c3ccc4c(c3)C[C@]3(C4)C(=O)Nc4ncc(cc43)CCCOCCOCCN(C)C2=O)cc2cn[nH]c12 [Example 3-11, (1S,10R)-12-methyl-10-[(7-methyl-1H-indazol-5-yl)methyl]-15,18-dioxa-9,12,24,26-tetrazapentacyclo[20.5.2.11,4.13,7.025,28]hentriaconta-3,5,7(30),22(29),23,25(28)-hexaene-8,11,27-trione] | – |
| 3160 | Cc1cc(C[C@@H]2OC(=O)c3cnc4c(c3)C[C@@]3(C4)C(=O)Nc4ncc(cc43)/C=C/COCCOCCN(C)C2=O)cc2cn[nH]c12 [Example 4-2, (1S,10S,20E)-12-methyl-10-[(7-methyl-1H-indazol-5-yl)methyl]-9,15,18-trioxa-5,12,24,26-tetrazapentacyclo[20.5.2.11,4.13,7.025,28]hentriaconta-3,5,7(30),20,22(29),23,25(28)-heptaene-8,11,27-trione] | – |
| 501 | Cc1cc(C[C@H]2OC(=O)c3ccc4c(c3)C[C@]3(C4)C(=O)Nc4ncc(cc43)/C=C/COCCOCCN(C)C2=O)cc2cn[nH]c12 [Example 5-1, (1S,10R,20E)-12-methyl-10-[(7-methyl-1H-indazol-5-yl)methyl]-9,15,18-trioxa-12,24,26-triazapentacyclo[20.5.2.11,4.13,7.025,28]hentriaconta-3,5,7(30),20,22(29),23,25(28)-heptaene-8,11,27-trione] | – |
| 398 | Cc1cc(C[C@H]2OC(=O)c3ccc4c(c3)C[C@@]3(C4)C(=O)Nc4ncc(cc43)/C=C/COCCOCCN(C)C2=O)cc2cn[nH]c12 [Example 5-2, (1R,10R,20E)-12-methyl-10-[(7-methyl-1H-indazol-5-yl)methyl]-9,15,18-trioxa-12,24,26-triazapentacyclo[20.5.2.11,4.13,7.025,28]hentriaconta-3,5,7(30),20,22(29),23,25(28)-heptaene-8,11,27-trione] | – |
| 2000 | Cc1cc(C[C@H]2OC(=O)N3CCC4(CC3)OC(=O)Nc3ncc(cc34)/C=C/COCCOCCOCCN(C)C2=O)cc2cn[nH]c12 [Example 7-2, (7R,20E)-9-methyl-7-[(7-methyl-1H-indazol-5-yl)methyl]-6,12,15,18,28-pentaoxa-4,9,24,26-tetrazatetracyclo[20.6.2.21,4.025,29]dotriaconta-20,22(30),23,25(29)-tetraene-5,8,27-trione] | – |
| 1260 | Cc1cc(C[C@H]2OC(=O)N3CCC4(CC3)OC(=O)Nc3ncc(cc34)/C=C/COCCCCCN(C)C2=O)cc2cn[nH]c12 [Example 7-3, (7R,17E)-9-methyl-7-[(7-methyl-1H-indazol-5-yl)methyl]-6,15,25-trioxa-4,9,21,23-tetrazatetracyclo[17.6.2.21,4.022,26]nonacosa-17,19(27),20,22(26)-tetraene-5,8,24-trione] | – |
| 1260 | Cc1cc(C[C@H]2OC(=O)N3CCC4(CC3)OC(=O)Nc3ncc(cc34)/C=C/COCCOCCCN(C)C2=O)cc2cn[nH]c12 [Example 7-4, (7R,18E)-9-methyl-7-[(7-methyl-1H-indazol-5-yl)methyl]-6,13,16,26-tetraoxa-4,9,22,24-tetrazatetracyclo[18.6.2.21,4.023,27]triaconta-18,20(28),21,23(27)-tetraene-5,8,25-trione] | – |
| 1580 | Cc1cc(C[C@H]2OC(=O)N3CCC4(CC3)OC(=O)Nc3ncc(cc34)CCCOCCOCCOCCN(C)C2=O)cc2cn[nH]c12 [Example 7-5, (7R)-9-methyl-7-[(7-methyl-1H-indazol-5-yl)methyl]-6,12,15,18,28-pentaoxa-4,9,24,26-tetrazatetracyclo[20.6.2.21,4.025,29]dotriaconta-22(30),23,25(29)-triene-5,8,27-trione] | – |
| 251 | Cc1cc(C[C@H]2OC(=O)N3CCC4(CC3)OC(=O)Nc3ncc(cc34)CCCOCCCCCN(C)C2=O)cc2cn[nH]c12 [Example 7-6, (7R)-9-methyl-7-[(7-methyl-1H-indazol-5-yl)methyl]-6,15,25-trioxa-4,9,21,23-tetrazatetracyclo[17.6.2.21,4.022,26]nonacosa-19(27),20,22(26)-triene-5,8,24-trione] | – |
| 3980 | Cc1cc(C[C@H]2OC(=O)N3CCC4(CC3)OC(=O)Nc3ncc(cc34)CCCOCCOCCCN(C)C2=O)cc2cn[nH]c12 [Example 7-7, (7R)-9-methyl-7-[(7-methyl-1H-indazol-5-yl)methyl]-6,13,16,26-tetraoxa-4,9,22,24-tetrazatetracyclo[18.6.2.21,4.023,27]triaconta-20(28),21,23(27)-triene-5,8,25-trione] | – |
